Laboratory results published in patent US11976047B1, “4,5-bis(4-bromo-phenyl)-1-hexyl-2-(2- methoxyphenyl)-1H-imidazole as an antimicrobial compound” (KING FAISAL UNIVERSITY, priority 2023, dated 2024).

Assays:
Format in all cases: cell-based
Details in all cases: after 10, 20, 40 and 60 minutes at all dilutions 1:100, 1:200, 1:400, 1:800 (summary in words)
[1] = tested on: Staphylococcus aureus; test: Antimicrobial screening by agar dilution, Staphylococcus aureus
Experimental: (§1) The antimicrobial properties of the 4,5-bis(4-bromo-phenyl)-1-hexyl-2-(2-methoxyphenyl)-1H-imidazole was studied by the method of agar dilution. Test solutions of each compound was prepared in concentration of 1% using dimethylformamide as a solvent then they are diluted in physiological solution to obtain the final experimental dilutions 1:100, 1:200, 1:400, 1:800. The effect of these substances are compared with furacillin in a controlled study. The testing microbes used were gram positive bacteria Staphylococcus aureus, gram negative bacteria Pseudomonas aeruginosa and Escherichia coli and Candida albicans fungi were taken. The experiments used for this survey were meat-pentonlu agar (EPA) for cultivation of bacteria and Saburo environment for fungi. Each experiment used 1 ml of test solution on each plate 500 min. Add 2 drops of emulsified with microbes feel. All experimental samples were taken from the agar after 10, 20, 40, 60 minutes in the environment on the basis of Patrk planted. Bacteria were cultivated at a temperature of 37° C. for 1 day and the mushroom was kept in a thermostat for 2 hours at a temperature of 28° C. in the. Then results were checked.

[2] = tested on: Escherichia coli; test: Antimicrobial screening by agar dilution, Escherichia coli
Experimental: as §1

[3] = tested on: Pseudomonas aeruginosa; test: Antimicrobial screening by agar dilution, Pseudomonas aeruginosa
Experimental: as §1

[4] = tested on: Candida albicans; test: Antimicrobial (antifungal) screening by agar dilution, Candida albicans
Experimental: as §1

CCCCCCn1c(-c2ccccc2OC)nc(-c2ccc(Br)cc2)c1-c1ccc(Br)cc1 [4,5-bis(4-bromo-phenyl)-1-hexyl-2-(2-methoxyphenyl)-1H-imidazole]
highest inhibition activity: inhibition activity, Staphylococcus aureus [1] | inhibition activity, Escherichia coli [2] | inhibition activity, Pseudomonas aeruginosa [3] | inhibition activity, Candida albicans [4]
